Here are results for 13 compounds from ChEMBL document CHEMBL4177539, “Discovery of N-((3R,4R)-4-Fluoro-1-(6-((3-methoxy-1-methyl-1H-pyrazol-4-yl)amino)-9-methyl-9H-purin-2-yl)pyrrolidine-3-yl)acrylamide (PF-06747775) through Structure-Based Drug Design: A High Affinity Irreversible Inhibitor Targeting Oncogenic EGFR Mutants with Selectivity over Wild-Type EGFR” (J Med Chem, 2017).

Usually logD stands for the decadic logarithm of the distribution of all forms, ionised or not, between an organic phase and buffer at a given pH. A low value points to a more hydrophilic compound. The IC50 is the concentration at which inhibition is half-maximal. A high value points to lower potency. One may read the microsomal CLint as the capacity of the preparation to metabolise the compound, expressed as a volume cleared per time. A word on the Papp: it is the rate of passage across a membrane or cell layer, normalised by area and donor concentration. As a reminder, the half-life is the time in which the quantity being followed falls by half. A lower half-life goes with fast loss.

The nature of series [1]: physchem. As to conditions: octanol/water.
The species named for series [2] is Homo sapiens. Kind of series: Selectivity index, ratio of IC50 for wild-type EGFR autophosphorylation in human A549 cells to IC50 for EGFR T790M/L858R double mutant autophosphorylation in human H1975 cells. The series is classed as cell-based.
The target in series [3] is Epidermal growth factor receptor (Homo sapiens, UniProt P00533, EX19DEL/T790M).
The nature of series [4]: in vitro. To be noted: human, liver microsomes. In general terms: Liver microsomes are a subcellular fraction often used to study metabolism.
The target in series [5] is Epidermal growth factor receptor (Homo sapiens, UniProt P00533, EX19DEL).
The target in series [6] is Epidermal growth factor receptor (Homo sapiens, UniProt P00533).
Series [7] in a line: in vitro. To be noted: dog, MDCK.
In series [8] the test system is Hepatocyte. As to conditions: human, hepatocytes, 1 µM.
The nature of series [9]: physchem. As to conditions: phosphate buffer with glutathione, pH 7.4.

Epidermal growth factor receptor (Homo sapiens, UniProt P00533), sequence (P00533 whole entry): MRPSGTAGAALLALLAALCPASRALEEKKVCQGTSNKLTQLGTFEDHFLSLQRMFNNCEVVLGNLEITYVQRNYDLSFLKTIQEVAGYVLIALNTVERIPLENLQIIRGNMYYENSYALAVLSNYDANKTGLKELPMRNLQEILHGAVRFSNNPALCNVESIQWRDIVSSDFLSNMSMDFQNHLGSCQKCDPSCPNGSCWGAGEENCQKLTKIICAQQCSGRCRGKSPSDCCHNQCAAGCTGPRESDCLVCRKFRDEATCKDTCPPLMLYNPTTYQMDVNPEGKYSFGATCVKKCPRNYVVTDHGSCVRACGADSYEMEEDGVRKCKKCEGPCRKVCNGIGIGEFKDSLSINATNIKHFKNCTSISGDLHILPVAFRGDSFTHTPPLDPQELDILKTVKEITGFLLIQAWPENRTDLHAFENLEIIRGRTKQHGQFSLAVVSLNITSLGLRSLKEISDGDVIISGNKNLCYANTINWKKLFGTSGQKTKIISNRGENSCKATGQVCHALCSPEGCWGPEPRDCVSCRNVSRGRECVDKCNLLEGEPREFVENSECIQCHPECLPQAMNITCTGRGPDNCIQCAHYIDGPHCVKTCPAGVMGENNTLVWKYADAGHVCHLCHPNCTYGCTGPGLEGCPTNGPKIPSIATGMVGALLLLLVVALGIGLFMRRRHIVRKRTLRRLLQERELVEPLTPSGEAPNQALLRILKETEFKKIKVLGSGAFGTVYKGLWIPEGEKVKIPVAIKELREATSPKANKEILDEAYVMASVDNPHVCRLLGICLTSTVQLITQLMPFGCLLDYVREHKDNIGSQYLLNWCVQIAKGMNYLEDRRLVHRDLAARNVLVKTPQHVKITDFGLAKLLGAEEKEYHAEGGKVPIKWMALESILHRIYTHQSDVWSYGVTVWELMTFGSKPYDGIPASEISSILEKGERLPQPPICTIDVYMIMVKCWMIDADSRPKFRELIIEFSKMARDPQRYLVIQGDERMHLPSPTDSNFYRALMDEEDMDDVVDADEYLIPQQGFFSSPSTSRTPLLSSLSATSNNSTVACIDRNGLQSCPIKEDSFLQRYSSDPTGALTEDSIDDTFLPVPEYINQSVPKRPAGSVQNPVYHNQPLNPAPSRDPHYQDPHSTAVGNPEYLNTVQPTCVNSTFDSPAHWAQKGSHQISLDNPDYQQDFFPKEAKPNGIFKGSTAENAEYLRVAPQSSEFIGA
Epidermal growth factor receptor (Homo sapiens, UniProt P00533, EX19DEL/T790M), sequence (P00533 whole entry, looked up, stated change not applied): as the sequence (P00533 whole entry) above
Epidermal growth factor receptor (Homo sapiens, UniProt P00533, EX19DEL), sequence (P00533 whole entry, looked up, stated change not applied): as the sequence (P00533 whole entry) above

In turn, `C=CC(=O)N[C@@H]1CN(c2nc(Nc3cn(C)nc3C)c3ncn(C(C)C)c3n2)C[C@H]1F` displayed a logD in series [1] of 2.6. Further, in [2], the Ratio IC50 is 56. Moreover, the IC50 came out at 0.004 µM in series [3], 0.016 µM in series [5] and 1.45 µM in [6]. The microsomal CLint at […], 1 µM in series [4] was found to be 30 µL/min/mg.

As for `C=CC(=O)N[C@@H]1CCN(c2nc(Nc3cnn(C)c3)c3ncn(C(C)C)c3n2)C1`, in [1], the pH-dependent lipophilicity (logD) stood at 2.7.

For `C=CC(=O)N1CC[C@@H](Nc2nc(Nc3ccc(N4CCN(C)CC4)cc3)c3ncn(C(C)C)c3n2)C1`, the logD in series [1] was 2.5. For the same compound, the Ratio IC50 in series [2] was determined as 13.

`C=CC(=O)N[C@@H]1CCN(c2nc(Nc3ccc(N4CCN(C)CC4)cc3)c3ncn(C(C)C)c3n2)C1` returned a logD in [1] of 2.

`C=CC(=O)N1C[C@@H]2CN(c3nc(Nc4cnn(C)c4)c4ncn(C(C)C)c4n3)C[C@@H]2C1` came in with a logD in series [1] of 2.2. The Ratio IC50 in series [2] turned out to be 16.

On to `C=CC(=O)N[C@H]1CCN(c2nc(Nc3ccc(N4CCN(C)CC4)cc3)c3ncn(C(C)C)c3n2)C1`, for which the logD in [1] worked out at 2.2. Moreover, the Ratio IC50 in series [2] is 15.

`C=CC(=O)N[C@H]1CCN(c2nc(Nc3cnn(C)c3)c3ncn(C(C)C)c3n2)C1`: in series [1], the logD was determined as 2.3. Besides, the Ratio IC50 in [2] stood at 13.

Turning to `C=CC(=O)N[C@@H]1CN(c2nc(Nc3cn(C)nc3OC)c3nc[nH]c3n2)C[C@H]1F`, the logD in series [1] was 1.8. The Papp in series [7] was 2 ×10⁻⁶ cm/s. Moreover, in series [4], the microsomal CLint at […], 1 µM was determined as 8 µL/min/mg.

Compound `C=CC(=O)N1CC[C@H](Nc2nc(Nc3ccc(N4CCN(C)CC4)cc3)c3ncn(C(C)C)c3n2)C1` showed a logD in series [1] of 1.8. The Ratio IC50 in series [2] is above 35. Further, the IC50 in series [6] is above 10 µM.

Regarding `C=CC(=O)N[C@@H]1CN(c2nc(Nc3cn(C)nc3OC)c3ncn(C(C)C)c3n2)C[C@H]1F`, the CLH in series [8] was found to be 23 µL/min/mg. In [1], this compound registered a logD of 2.6. The Papp in series [7] is 18 ×10⁻⁶ cm/s. The same compound gave a microsomal CLint at […], 1 µM in series [4] of 32 µL/min/mg.

For the compound `C=CC(=O)N[C@@H]1CN(c2nc(Nc3cn(C)nc3CC)c3ncn(C(C)C)c3n2)C[C@H]1F`, the logD in [1] was found to be 3.5. Besides, the microsomal CLint at […], 1 µM in series [4] is 81 µL/min/mg.

On to `CC(C)C(CO)Nc1nc(Nc2ccc(N3CCNCC3)cc2)c2ncn(C(C)C)c2n1` (racemic), for which the Papp in [7] amounted to 1.9 ×10⁻⁶ cm/s.

In turn, `C=CC(=O)Nc1cc2c(Nc3ccc(F)c(Cl)c3)ncnc2cc1OCCCN1CCOCC1` [CANERTINIB] displayed a half-life at 2 h, 1 µM in series [9] of 21 min.
